Each structure is given as a SMILES string.

A short description of data set [1]: Plasma pharmacokinetics after oral or subconjunctival administration. The conditions noted are these: local (subconjunctival), mice. The format is in vivo, mouse. As for the experimental part:
For oral delivery of R788, the target dose of 25 mg/kg R788 was administered by oral gavage as a 4 mM solution in 0.01 N citrate buffer, pH 6 ([9]). For subconjunctival administration, R788 was prepared at a concentration of 4 mM in 2% PEG-800 and filtered through a 0.22 μm filter prior to use (see Table S1). R788 was also administered subconjunctivally as a suspension at a concentration of 25 mM in 10% 2-hydroxylpropyl-β-cyclodextrin (HPβCD, Sigma-Aldrich). For subconjunctival administration, R406 phenylsulfonate salt was administered at a concentration of 800–900 μM as a cosolvent solution in a formulation of 5% Cremaphor-eL, 0.5% ethanol, 0.2% Tween 80 and 94.3% PBS, filtered through a 0.22 μm filter prior to use (see Table S2). R406 phenylsulfonate salt was also administered subconjunctivally at a dose of 31.4 mM solution in DMSO. R406 free base was administered subconjunctivally at a concentration of 6.5 mM as a 25% castor oil (Sigma-Aldrich) emulsion. This emulsion was prepared by mixing castor oil: ethanol (1:1) solution of R406 (approx. 35 mM), in vacuo evaporation of the ethanol, and centrifugation to remove any excess R406, then emulsifying the R406 oil phase in an aqueous phase comprised of Cremaphor-eL, Tween 80 and PBS (final composition of the emulsion: 25% castor oil, 5% Cremaphor-eL, 0.2% Tween-80, 69.8% PBS) by probe sonication. For intravitreal injection, R788 solution was prepared by filtering a 0.12 mM (120 μM) solution of R788 in saline through a 0.22 μm filter. […] For topical delivery, 25–30 mM suspensions were prepared in 5% HPβCD. R406 or R788 concentration in all formulations was determined by UPLC prior to study (in cases where formulation was filtered before administration, concentration was determined post-filtering) Table I.
For the systemic delivery study R788 was administered as a single bolus dose (25 mg/kg, 10 mL/kg volume) by oral gavage. For the subconjunctival administration study R788 or R406 (10 µL of formulation) was injected into the subconjunctival space of an anesthetized mouse using a Hamilton microliter syringe (Hamilton company, Reno NV). For the intravitreal administration study, R788 (5 μL of […] in saline) was administered to each eye via direct injection. To perform the intravitreal injection, mice were anesthetized, a small incision between the sclera and the cornea was created with a […] needle, and the R788 was injected into the vitreous using a Hamilton microliter syringe. For the topical administration study, R406 (2 μL of 25–30 mM suspension) was applied as a drop to the surface of each eye of an anesthetized mouse.
At serial time points (0.5, 1, 2, 4, and 8 h post-injection, n = 3 for each time point), blood was collected by terminal cardiac puncture after isoflurane anesthesia. Whole-blood samples were centrifuged immediately at 10,000×g for 5 min at 4°C to separate plasma. Once the cardiac puncture and blood collection was completed, the animal was perfused with 10 mL of saline and euthanized by cervical dislocation. Eyes were removed, rinsed in PBS, gently patted dry, then rinsed and dried again. Eyes were dissected and vitreous was collected. Plasma and vitreous samples were put on dry ice immediately after collection and stored at −80°C until analysis. For quantitative analysis methods and assay validation methods and results, see Supplementary Information.
Plasma and vitreous concentration time data were analyzed using non-compartmental analysis in WinNonlin 6.2 (Pharsight, Mountain View, CA), providing PK parameters including Cmax (maximum observed concentration), Tmax (time to reach maximum observed concentration), AUC (area under the concentration time curve) and MRT (mean residence time). AUC and AUMC (area under the concentration time first moment curve) values were estimated with the linear trapezoidal method, with parameters calculated using mean concentration values at each time point. […]

Data set [2] can be described thus: Concentration and stability of R406 in cosolvent solution formulation. The format is physicochemical. As for the experimental part: R406 stability in cosolvent solution: Precipitation of R406 in the cosolvent solution causes a drop in concentration after 48 hours of storage at room temperature (Table S3), but there is no loss of purity indicating R406 is chemically stable in the co-solvent solution for 48 hours at room temperature (Figure S4).

Data set [3] concerns RB355 retinoblastoma cells. In words: RB355 cell viability (Cell Titer Glo) after varied exposure durations. The format is cell-based. As for the experimental part: RB355 retinoblastoma cells were maintained in RPMI medium (Lonza RPMI-1640) supplemented with 10% FBS (Equitech-Bio), penicillin, streptomycin, and glutamate (Gibco). BJ cells were grown in EMEM (Lonza) supplemented with 10% FBS, penicillin and streptomycin. 293T cells were grown in DMEM supplemented with 10% FBS, penicillin, streptomycin, and glutamate. Cells were passaged every 3-4 days or when they reached 70%-80% confluence.
RB335 cells were seeded in 6-well dishes. Seeded cells were incubated overnight at 37 °C in a humidified 5% CO2 incubator. Cells were treated with DMSO alone, 1, 2.5, or 5 µM R406 and returned to the incubator. At 0, 6, 12, 18, 24, and 72 h, the drugged media was removed from a subset of samples (n=3 samples per cell line) and replaced with drug-free media, washing out the R406 for the remainder of the 72 h incubation. After 72 hours, cells were suspended and aliquoted into a 96 well plate assaying viability (50 µL of cells per well, each sample assayed in duplicate and averaged). Plates were equilibrated at room temperature for 20 min before addition of 50 μL Cell Titer Glo (Promega) to each well. Plates were shaken on an orbital shaker for 2 min at 500 rpm. Luminescence was read after 15 min on an Envision plate reader (Perkin Elmer). Dissociated cells were also stained for caspase and EdU. […]

The mark [4] stands for this setting: co-solvent solution 0.88 mM, 8.8 nmol per eye.
[5] abbreviates: Storage Time = 48 hr, room temperature.

With `COc1cc(Nc2ncc(F)c(Nc3ccc4c(n3)NC(=O)C(C)(C)O4)n2)cc(OC)c1OC.O=S(=O)(O)c1ccccc1` [R406 phenylsulfonate salt], in data set [1] (DMSO 31.4 mM, 314 nmol per eye), the Cmax stood at 370 nM, the “Plasma AUClast” value came out at 0.298 µM·h, the “Plasma Dose normalized AUC” value is 0.5 nM∙h/nmol and the “Plasma Tlast” value turned out to be 4 h. In addition, in data set [1] (DMSO 31.4 mM, 314 nmol per eye), the “Plasma Tmax” value was 30 min. For the same molecule, in data set [1] (setting [4]), the Cmax came to 79 nM, the “Plasma AUClast” value is 0.0429 µM·h, the “Plasma Dose normalized AUC” value was found to be 2.4 nM∙h/nmol and the “Plasma Tlast” value is 1 h. In addition, in data set [1] (setting [4]), the “Plasma Tmax” value is 30 min.

For `COc1cc(Nc2ncc(F)c(Nc3ccc4c(n3)NC(=O)C(C)(C)O4)n2)cc(OC)c1OC` [R406], the “Average Concentration in cosolvent formulation” value in data set [2] (Initial Concentration, room temperature) is given as 743.6 µM. In addition, in data set [2] (setting [5]), the “Average Concentration in cosolvent formulation” value is reported as 252.5 µM and the “Percentage of Initial Concentration in cosolvent formulation” value was 34%. Further, the “maximum concentration of R406 in solution formulation” value in data set [2] (cosolvent solution formulation with FDA approved ophthalmic adjuvants) is reported as “approximately 900 μM”. Also, the “time chemically stable in cosolvent solution formulation (no loss of purity)” value in data set [2] (room temperature) is recorded as 48 h. Further, the cytotoxicity in data set [3] (1 μM R406, 48 – 72 h exposure, read-out: drop in viability compared to DMSO treated controls) was about 20%. The “reduction in viability compared to DMSO treated controls” value in data set [3] (1 μM R406, up to 24 h exposure) is listed as “no reduction in cell viability”.

As a reminder, the Cmax is the highest concentration seen after dosing.

These data come from publication PMC4213378, “Pharmacokinetics and Efficacy of the Spleen Tyrosine Kinase Inhibitor R406 after Ocular Delivery for Retinoblastoma” (Pharmaceutical Research, 2014).
